Measured values reported in patent publication US20080214606A1, “Methods for the Identification and Use of Compounds Suitable for the Treatment of Drug Resistant Cancer Cells” (The Government of the United States of America as …, priority 2004, published 2008).
Like-named read-outs stand apart in the source and are kept apart here.

What was measured:
[1] = biological target: T1, ABCA4 (Homo sapiens, UniProt P78363); test: Correlation of ABCA4 expression with drug sensitivity across the NCI-60; format: cell-based; details: Pearson correlation of ABCA4 expression with sensitivity of the 60 cell lines; 1429 compounds; inverse, p < 0.0001
T1 construct: profiled in 60 diverse cancer cell lines (the NCI-60) using real-time RT-PCR; endogenous in cells; host or cells: NCI-60 human cancer cell lines
Method: (§1) Expression levels are measured by real-time quantitative RT-PCR using the LightCycler RNA Amplification SYBR Green kit and a LightCycler machine (Roche Biochemicals, Indianapolis, Ind.). Specific oligonucleotide probes are designed for each of the ABC transporters using DNAStar Primer Select (DNASTAR Inc.), and they may be synthesized at Lofstrand Laboratories (Gaithersburg, Md.). When possible, the amplicons are designed to encompass exon-intron boundaries to avoid amplification of genomic DNA. Since the Syber Green assay detects accumulation of double stranded DNA, primers are selected (from a battery consisting of about 200 primers) that amplified a single product of the correct size.
(§2) RT-PCR is carried out on 150 ng total RNA, in the presence of 250 nM specific primers. Following reverse transcription (20 min at 50° C.), the PCR reaction consists of 45 cycles of denaturation (15 sec at 95° C.), annealing (30 sec at 58° C.), and elongation (30 sec at 72° C.). No-template (water) reaction mixtures are prepared as negative controls.
(§3) During PCR amplification, fluorescence emission is measured and recorded in real time by the LightCycler. Crossing point values are calculated, using the LightCycler software package, by the Fit Points analysis method, with baseline fluorescence set at 1. The SyberGreen assay measures accumulation of double-stranded products, and the appearance of primer dimers limits quantitation at high cycle numbers. The specificity of amplified products is verified by melting-curve analysis and agarose gel electrophoresis (not shown). The raw results are expressed as number of cycles to reach the crossing point. If the desired product is not detected, the corresponding value is adjusted to crossing points indicating no expression. To assess the contribution of experimental artifacts, selected cell lines are assessed in replicate.
(§4) The two are combined to form a joint dataset that includes 1429 compounds.
(§5) To control the overall false type 1 error rate, both a step-down procedure (Westfall and Young, 1993, Resampling-Based Multiple Testing: Examples and Methods for p-value Adjustment (New York: Wiley)) and a step-up procedure (Reiner et al., 2003, Bioinformatics 19:368-375) were employed to adjust for multiple testing of all 47 genes simultaneously. […] In this analysis, the False Discovery Rate (q-value) at which each compound would be declared was calculated using the step-up procedure for positively correlated test statistics (again true because all correlations being compared are computed against the same ABC gene): in this procedure the first q-value for the largest correlation is the Bonferroni-corrected p-value for that gene; then further q-values are calculated as qj=max(pj*1429/j, qj-1). […]

[2] = biological target: T2, ABCA12 (Homo sapiens, UniProt Q86UK0); test: Correlation of ABCA12 expression with drug sensitivity across the NCI-60; format: cell-based; details: Pearson correlation of ABCA12 expression with sensitivity of the 60 cell lines; 1429 compounds; inverse, p < 0.0001
T2 construct: profiled in 60 diverse cancer cell lines (the NCI-60) using real-time RT-PCR; endogenous in cells; host or cells: NCI-60 human cancer cell lines
Method: as §1, §2, §3, §4, §5

[3] = biological target: T3, ABCC3 (Homo sapiens, UniProt O15438); test: Correlation of ABCC3 expression with drug sensitivity across the NCI-60; format: cell-based; details: Pearson correlation of ABCC3 expression with sensitivity of the 60 cell lines; 1429 compounds; inverse, p < 0.0001
T3 construct: profiled in 60 diverse cancer cell lines (the NCI-60) using real-time RT-PCR; endogenous in cells; host or cells: NCI-60 human cancer cell lines
Method: (§6) Expression levels are measured by real-time quantitative RT-PCR using the LightCycler RNA Amplification SYBR Green kit and a LightCycler machine (Roche Biochemicals, Indianapolis, Ind.). […] When possible, the amplicons are designed to encompass exon-intron boundaries to avoid amplification of genomic DNA. Since the Syber Green assay detects accumulation of double stranded DNA, primers are selected (from a battery consisting of about 200 primers) that amplified a single product of the correct size.
as §2, §3, §4
To determine quantitatively how well the 47 genes cluster the cell lines by their tissues of origin, a statistical method is employed wherein the kappa statistic is used to indicate how well the observed clusters correspond to the nine tissue-of-origin classifications. […] To control the overall false type 1 error rate, both a step-down procedure (Westfall and Young, 1993, Resampling-Based Multiple Testing: Examples and Methods for p-value Adjustment (New York: Wiley)) and a step-up procedure (Reiner et al., 2003, Bioinformatics 19:368-375) were employed to adjust for multiple testing of all 47 genes simultaneously. In the Benjamini-Hochberg procedure the p-values are computed in the standard way by permutation, assuming that all distributions are exchangeable: the number of values in the permuted data with correlations over a threshold, divided by the number of compounds and by the number of permutations. In this analysis, the False Discovery Rate (q-value) at which each compound would be declared was calculated using the step-up procedure for positively correlated test statistics (again true because all correlations being compared are computed against the same ABC gene): in this procedure the first q-value for the largest correlation is the Bonferroni-corrected p-value for that gene; then further q-values are calculated as qj=max(pj*1429/j, qj-1). This procedure limits the expected proportion of false positives in the list 1, . . . , j to at most qj.

[4] = biological target: T4, ABCC1 (Homo sapiens, UniProt P33527); test: Correlation of ABCC1 expression with drug sensitivity across the NCI-60; format: cell-based; details: Pearson correlation of ABCC1 expression with sensitivity of the 60 cell lines; 1429 compounds; inverse, p < 0.0001
T4 construct: profiled in 60 diverse cancer cell lines (the NCI-60) using real-time RT-PCR; endogenous in cells; host or cells: NCI-60 human cancer cell lines
Method: as §6, §2, §3, §4
(§7) In the Benjamini-Hochberg procedure the p-values are computed in the standard way by permutation, assuming that all distributions are exchangeable: the number of values in the permuted data with correlations over a threshold, divided by the number of compounds and by the number of permutations. In this analysis, the False Discovery Rate (q-value) at which each compound would be declared was calculated using the step-up procedure for positively correlated test statistics (again true because all correlations being compared are computed against the same ABC gene): in this procedure the first q-value for the largest correlation is the Bonferroni-corrected p-value for that gene; then further q-values are calculated as qj=max(pj*1429/j, qj-1). This procedure limits the expected proportion of false positives in the list 1, . . . , j to at most qj.

[5] = biological target: T5, ABCC5 (Homo sapiens, UniProt O15440); test: Correlation of ABCC5 expression with drug sensitivity across the NCI-60; format: cell-based; details: Pearson correlation of ABCC5 expression with sensitivity of the 60 cell lines; 1429 compounds; inverse, p < 0.0001
T5 construct: profiled in 60 diverse cancer cell lines (the NCI-60) using real-time RT-PCR; endogenous in cells; host or cells: NCI-60 human cancer cell lines
Method: as §6, §2, §3, §4, §7

[6] = biological target: ABCB1 (Homo sapiens, UniProt P08183); test: Correlation of ABCB1 expression with drug sensitivity across the NCI-60
In short: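 SYBR Green real-time RT-PCR on 150 ng total RNA with 250 nM primers: RT 20 min at 50 °C, then 45 cycles; expression taken as crossing-point cycle number. Correlated with drug sensitivity of 1429 compounds across the cell panel; permutation p-values with step-down and step-up (FDR q-value) multiple-testing correction.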

[7] = biological target: MDR1 (Homo sapiens, UniProt P08183); details: cited from earlier work; for Interaction with MDR1: tested in various laboratories
[8] = biological target: T6, ABCA1 (Homo sapiens, UniProt O95477); test: Correlation of ABCA1 expression with drug sensitivity across the NCI-60; format: cell-based; details: Pearson correlation of ABCA1 expression with sensitivity of the 60 cell lines; 1429 compounds; inverse, p < 0.0001
T6 construct: profiled in 60 diverse cancer cell lines (the NCI-60) using real-time RT-PCR; endogenous in cells; host or cells: NCI-60 human cancer cell lines
Method: as §6, §2, §3, §4, §7

[9] = biological target: T7, ABCB5 (Homo sapiens, UniProt Q2M3G0); test: Correlation of ABCB5 expression with drug sensitivity across the NCI-60; format: cell-based; details: Pearson correlation of ABCB5 expression with sensitivity of the 60 cell lines; 1429 compounds; inverse, p < 0.0001
T7 construct: profiled in 60 diverse cancer cell lines (the NCI-60) using real-time RT-PCR; endogenous in cells; host or cells: NCI-60 human cancer cell lines
T7 sequence (Q2M3G0 1-1257): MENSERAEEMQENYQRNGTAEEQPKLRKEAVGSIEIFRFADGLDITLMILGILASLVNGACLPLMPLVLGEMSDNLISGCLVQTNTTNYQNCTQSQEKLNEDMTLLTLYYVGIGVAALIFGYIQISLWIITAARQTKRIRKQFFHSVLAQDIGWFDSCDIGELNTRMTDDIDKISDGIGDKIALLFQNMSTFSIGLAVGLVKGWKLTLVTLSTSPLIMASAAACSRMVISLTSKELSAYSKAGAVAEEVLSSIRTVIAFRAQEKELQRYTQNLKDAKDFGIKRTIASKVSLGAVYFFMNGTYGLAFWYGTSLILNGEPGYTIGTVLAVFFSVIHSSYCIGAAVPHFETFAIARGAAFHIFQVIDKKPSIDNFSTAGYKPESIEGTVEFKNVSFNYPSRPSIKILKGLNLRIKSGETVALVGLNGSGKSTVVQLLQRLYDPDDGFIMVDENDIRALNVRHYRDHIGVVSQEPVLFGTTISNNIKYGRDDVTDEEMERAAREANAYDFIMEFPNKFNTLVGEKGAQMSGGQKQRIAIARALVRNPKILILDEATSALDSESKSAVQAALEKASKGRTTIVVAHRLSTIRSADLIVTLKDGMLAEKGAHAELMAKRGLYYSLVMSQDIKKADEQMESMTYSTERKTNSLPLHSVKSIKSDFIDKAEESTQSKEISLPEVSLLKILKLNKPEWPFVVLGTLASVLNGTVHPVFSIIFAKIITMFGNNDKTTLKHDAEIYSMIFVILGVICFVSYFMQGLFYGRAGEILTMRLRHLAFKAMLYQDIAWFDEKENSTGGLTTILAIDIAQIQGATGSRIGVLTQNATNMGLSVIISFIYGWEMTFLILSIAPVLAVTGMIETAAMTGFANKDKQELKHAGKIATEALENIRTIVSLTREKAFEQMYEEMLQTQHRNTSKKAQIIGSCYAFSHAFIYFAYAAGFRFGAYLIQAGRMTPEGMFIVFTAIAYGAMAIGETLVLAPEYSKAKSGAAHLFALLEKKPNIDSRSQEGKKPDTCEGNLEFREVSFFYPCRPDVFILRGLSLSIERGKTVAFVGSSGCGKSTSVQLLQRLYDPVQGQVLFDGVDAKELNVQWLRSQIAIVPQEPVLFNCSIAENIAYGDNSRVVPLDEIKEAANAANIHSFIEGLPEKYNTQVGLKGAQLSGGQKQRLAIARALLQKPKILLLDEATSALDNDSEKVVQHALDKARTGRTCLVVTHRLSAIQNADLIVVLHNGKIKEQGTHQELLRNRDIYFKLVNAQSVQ
Method: as §6, §2, §3, §4, §7

[10] = biological target: T8, ABCB11 (Homo sapiens, UniProt O95342); test: Correlation of ABCB11 expression with drug sensitivity across the NCI-60; format: cell-based; details: Pearson correlation of ABCB11 expression with sensitivity of the 60 cell lines; 1429 compounds; inverse, p < 0.0001
T8 construct: profiled in 60 diverse cancer cell lines (the NCI-60) using real-time RT-PCR; endogenous in cells; host or cells: NCI-60 human cancer cell lines
Method: as §6, §2, §3, §4, §7

T3 sequence (O15438 whole entry): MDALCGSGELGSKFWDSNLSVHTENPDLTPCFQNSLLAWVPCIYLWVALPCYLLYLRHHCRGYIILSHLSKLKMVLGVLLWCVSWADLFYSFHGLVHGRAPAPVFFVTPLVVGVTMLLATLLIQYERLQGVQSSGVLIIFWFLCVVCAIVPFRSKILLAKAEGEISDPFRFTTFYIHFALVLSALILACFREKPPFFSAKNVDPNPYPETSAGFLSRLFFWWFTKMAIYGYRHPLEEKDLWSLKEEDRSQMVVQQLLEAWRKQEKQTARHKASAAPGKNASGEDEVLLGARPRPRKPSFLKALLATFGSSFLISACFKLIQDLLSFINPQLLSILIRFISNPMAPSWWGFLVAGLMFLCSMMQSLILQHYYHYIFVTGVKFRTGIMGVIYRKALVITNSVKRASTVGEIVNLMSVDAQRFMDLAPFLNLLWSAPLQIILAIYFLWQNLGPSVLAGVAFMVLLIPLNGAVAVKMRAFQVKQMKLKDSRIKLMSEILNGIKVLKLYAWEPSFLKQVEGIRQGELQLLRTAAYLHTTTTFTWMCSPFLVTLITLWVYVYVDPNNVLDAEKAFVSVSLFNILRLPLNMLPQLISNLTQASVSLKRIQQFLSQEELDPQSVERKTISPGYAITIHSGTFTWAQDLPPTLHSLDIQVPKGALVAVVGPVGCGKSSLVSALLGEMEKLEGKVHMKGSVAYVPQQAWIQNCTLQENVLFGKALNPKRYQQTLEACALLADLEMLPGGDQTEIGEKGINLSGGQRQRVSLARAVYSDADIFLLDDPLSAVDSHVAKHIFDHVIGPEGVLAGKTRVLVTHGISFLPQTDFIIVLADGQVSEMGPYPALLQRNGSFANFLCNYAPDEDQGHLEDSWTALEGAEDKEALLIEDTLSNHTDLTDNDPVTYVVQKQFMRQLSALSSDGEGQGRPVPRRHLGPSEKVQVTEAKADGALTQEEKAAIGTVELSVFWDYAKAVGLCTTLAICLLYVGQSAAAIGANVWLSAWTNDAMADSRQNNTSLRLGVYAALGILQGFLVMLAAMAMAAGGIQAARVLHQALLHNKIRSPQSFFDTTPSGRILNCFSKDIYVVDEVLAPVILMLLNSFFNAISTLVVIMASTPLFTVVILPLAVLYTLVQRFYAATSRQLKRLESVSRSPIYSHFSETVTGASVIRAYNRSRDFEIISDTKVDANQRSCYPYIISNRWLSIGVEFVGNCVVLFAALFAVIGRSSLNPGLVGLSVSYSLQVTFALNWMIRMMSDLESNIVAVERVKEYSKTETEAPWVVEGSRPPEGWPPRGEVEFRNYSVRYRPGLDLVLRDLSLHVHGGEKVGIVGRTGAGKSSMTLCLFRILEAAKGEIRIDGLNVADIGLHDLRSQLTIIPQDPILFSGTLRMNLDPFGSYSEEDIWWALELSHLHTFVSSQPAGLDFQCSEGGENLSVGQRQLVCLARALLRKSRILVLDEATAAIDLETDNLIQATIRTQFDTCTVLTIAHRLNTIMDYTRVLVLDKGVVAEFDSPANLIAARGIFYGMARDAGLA
MDR1, sequence (P08183 whole entry): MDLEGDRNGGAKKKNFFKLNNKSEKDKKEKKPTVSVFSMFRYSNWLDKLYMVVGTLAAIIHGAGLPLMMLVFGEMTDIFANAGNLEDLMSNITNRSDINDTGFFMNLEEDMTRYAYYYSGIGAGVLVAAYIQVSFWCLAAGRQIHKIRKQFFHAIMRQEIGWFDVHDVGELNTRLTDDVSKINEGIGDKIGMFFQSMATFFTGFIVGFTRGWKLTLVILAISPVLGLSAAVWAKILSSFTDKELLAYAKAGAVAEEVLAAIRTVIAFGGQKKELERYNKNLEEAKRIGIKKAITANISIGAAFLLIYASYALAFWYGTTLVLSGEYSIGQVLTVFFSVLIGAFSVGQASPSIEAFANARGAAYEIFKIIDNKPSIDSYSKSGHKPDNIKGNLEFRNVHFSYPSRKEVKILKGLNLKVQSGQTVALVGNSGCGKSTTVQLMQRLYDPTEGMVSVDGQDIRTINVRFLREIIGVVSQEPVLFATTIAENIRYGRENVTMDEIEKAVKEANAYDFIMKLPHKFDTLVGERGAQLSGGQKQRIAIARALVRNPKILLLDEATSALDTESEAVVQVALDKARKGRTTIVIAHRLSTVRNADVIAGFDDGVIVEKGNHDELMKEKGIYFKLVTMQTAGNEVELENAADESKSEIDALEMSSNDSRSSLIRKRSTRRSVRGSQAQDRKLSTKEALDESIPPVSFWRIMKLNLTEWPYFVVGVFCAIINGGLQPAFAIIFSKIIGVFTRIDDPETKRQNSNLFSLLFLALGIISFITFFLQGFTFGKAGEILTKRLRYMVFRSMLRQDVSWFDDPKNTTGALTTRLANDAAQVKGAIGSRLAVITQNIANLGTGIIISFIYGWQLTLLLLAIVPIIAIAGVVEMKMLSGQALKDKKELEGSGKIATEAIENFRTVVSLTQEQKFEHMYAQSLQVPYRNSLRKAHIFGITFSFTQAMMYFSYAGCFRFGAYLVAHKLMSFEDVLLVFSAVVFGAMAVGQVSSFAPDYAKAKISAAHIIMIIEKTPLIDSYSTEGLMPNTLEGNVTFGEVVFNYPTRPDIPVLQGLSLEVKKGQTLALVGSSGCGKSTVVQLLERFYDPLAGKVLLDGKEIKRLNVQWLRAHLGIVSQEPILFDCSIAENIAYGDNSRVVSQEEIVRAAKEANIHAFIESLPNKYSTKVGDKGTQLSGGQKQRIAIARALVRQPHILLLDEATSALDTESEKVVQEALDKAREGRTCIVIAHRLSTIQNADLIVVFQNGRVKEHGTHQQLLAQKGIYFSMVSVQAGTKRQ
ABCB1, sequence (P08183 whole entry): as above

CC1=C(C(=O)Nc2ccccc2)C(c2ccc(N(C)C)cc2)C(C(=O)Nc2ccccc2)=C(C)N1 [NSC 636092]
Correlation [1]: −0.3977

Cc1cc(C)c2c(=O)cc(-c3ccccc3)[nH]c2c1 [NSC 665925]
Correlation [1]: −0.4545

O=C1C=C(Nc2ccccc2C(=O)CC(=O)C(=O)Nc2cccc(C(F)(F)F)c2)c2ccccc2C1=O [NSC 644751]
Correlation [2]: −0.5643 | Correlation [3]: −0.5748

C=C(c1ccccc1)[C@@]1(O)CC[C@@H]1N(CC#N)Cc1ccccc1 [NSC 617644]
Correlation [4]: −0.5087

CS(=O)(=O)[O-].Cc1c2cc[n+](C)cc2c(C)c2c1[nH]c1ccccc12 [NSC 352299]
Correlation [5]: −0.4318

CCS(=O)(=O)O.CN(C)C(=O)c1cccc(COc2ccc(N3C(N)=NC(N)=NC3(C)C)cc2Cl)c1 [NSC 139105, Baker's soluble antifol, reference compound]
Relationship between drug sensitivity and ABCB1 expression (in words) [6]: inversely correlated | Reversal of resistance by verapamil ([7]; verapamil, inhibitor of MDR1 transport (Gupta et al., 1988)): reversed by verapamil

CC(=O)O[C@@H]1[C@@H](O)[C@H](O[C@H]2[C@H](OC(=O)[C@H]3CC[C@@H]4[C@H](C3)O[C@@]3(C[C@H](OC(=O)/C=C/c5ccccc5)[C@H](C)CO3)[C@]43CO3)O[C@H](C)[C@@H](O)[C@@H]2OC(C)=O)O[C@H](C)[C@H]1O [NSC 328426, phyllanthoside]
Correlation ([6]; Pearson correlation of ABCB1 expression with sensitivity of the 60 cell lines, 1429 compounds, inverse, p < 0.0001): −0.7784 | Correlation [8]: −0.2806 | Interaction with MDR1 [7]: interact with MDR1

CC(=O)Oc1ccc(C2(c3ccc(F)cc3)OC(=O)c3ccccc32)c(C)c1 (stereo not shown) [NSC 671456]
Correlation [9]: −0.3650

Cc1c2ccnc(C(N)=O)c2c(C)c2c1[nH]c1ccccc12.Cl [NSC 335142]
Correlation [10]: −0.4214

COc1ccc2c(c1)c1c(C)c3c[n+](C)ccc3c(C)c1n2C [NSC 155694]
Correlation [5]: −0.4494

CC[n+]1c(/C=C/c2ccc(N(CCCl)CCCl)cc2)ccc2cc(NC(=O)/C=C/c3ccccc3)ccc21.[I-] [NSC 640085]
Correlation [8]: −0.3580

CCOC(=O)CNC(=O)NC12CC3CC(CC(C3)C1)C2 [NSC 208914]
Correlation [4]: −0.4950

C=C1C(=O)O[C@H]2[C@@H](O)[C@H](C)CCC/C(C)=C/CC[C@@]3(C)O[C@@H]3C[C@@H]12 [NSC 694509]
Pearson's Correlation Coeff [6]: 0.2823 | Correlation [9]: −0.2924

Cc1oc2c(c1C(=O)c1ccccc1)C(=O)c1ccccc1C2=O [NSC 641594]
Correlation [3]: −0.4994 | Correlation [4]: −0.4324

Cc1c2cc[n+](Cc3ccc(I)cc3)cc2c(C)c2c1[nH]c1ccccc12 [NSC 604574]
Correlation [5]: −0.4123

C=CCn1c2ccccc2c2c(C)c3cnccc3c(C)c21 [NSC 150834]
Correlation [10]: −0.5267

COC(=O)c1ccccc1NC(=O)C(=O)CC(=O)c1ccccc1NC1=CC(=O)C(=O)c2ccccc21 [NSC 641240]
Correlation [2]: −0.5165 | Correlation [3]: −0.5829

CN1N=C(N)c2cn([C@@H]3O[C@H](COP(=O)(O)O)[C@@H](O)[C@H]3O)c3ncnc1c23 [NSC 280594]
Correlation [9]: −0.3477

C=C1[C@H](OCC(C)C)[C@@H](O)[C@@H](OC(=O)c2cccnc2)C(C)(C)/C=C/[C@H](C)[C@H](OC(C)=O)[C@@]2(O)C[C@@](C)(OC(C)=O)[C@H](OC(=O)c3ccccc3)[C@@H]2[C@H]1OC(C)=O [NSC 688235]
Correlation [1]: −0.3557

COc1cc2cc3c4cc(OC)c(OC)cc4cc[n+]3c(C)c2cc1OC [NSC 156625, Coralyne]
Correlation [6]: −0.4657 | Interaction with MDR1 [7]: interact with MDR1

COC(=O)CCC(=O)NC1=C(Nc2ccccc2)C(=O)c2ccccc2C1=O [NSC 670762]
Correlation [4]: −0.4326

COc1cc(CNc2ccc(SC)cc2)cc(OC)c1OC [NSC 650771]
Correlation [1]: −0.3792

CN(C)CC1CCC/C(=C\c2ccc(OC(=O)/C=C/c3ccc(Cl)c(Cl)c3)cc2)C1=O.Cl (stereo not shown) [NSC 693443]
Pearson's Correlation Coeff [6]: 0.1842 | Correlation [9]: −0.3300

CC1C(c2ccc3c(c2)OCO3)c2cc3c(cc2OC1N1CCOCC1)OCO3 (stereo not shown) [NSC 666222]
Correlation [4]: −0.3675

COc1cc2c(cc1Oc1c(Oc3c(O)c(OC)cc4c3C(CC(C)C)N(C)CC4)c(OC)cc3c1C(CC(C)C)N(C)CC3)C(CC(C)C)N(C)CC2 (stereo not shown) [NSC 21075]
Correlation [5]: −0.3650

CC1=CC(=O)C(C)=CC1=O [NSC 15309]
Correlation [10]: −0.4683

COC1=C(OC)C(=O)c2cc(C)c(=O)c(C)cc2C1=O [NSC 649666]
Correlation [2]: −0.3757

OCC1OC(c2scc3c(=S)nc[nH]c23)C(O)C1O (stereo not shown) [NSC 670036]
Correlation [9]: −0.4561

CN(C)c1ccc(/C=c2/c3ccccc3n3c2cc(-c2ccc(Cl)cc2)[n+]3C)cc1.O=S(=O)([O-])C(F)(F)F [NSC 699479]
Correlation [8]: −0.4141

COc1cc2c(cc1O)CC[C@@H]1[C@@H]2CC[C@]2(C)[C@@H](O)CC[C@@H]12 [NSC 659853]
Correlation [2]: −0.5016

CC1(C)C[C@]23[C@@H]4COC(=O)[C@H]2CC[C@H]1[C@@H]3CC4=O [NSC 284437]
Correlation [10]: −0.5273

OCCO[P+]1(OCCO)n2c3ccc2C(c2ccccc2)=C2C=CC(=N2)C(c2ccccc2)=c2ccc(n21)=C(c1ccccc1)C1=NC(=C3c2ccccc2)C=C1 [NSC 682066]
Correlation [6]: −0.7985 | Correlation [8]: −0.3783

O=C1C(CO)=C[C@H](O)[C@H]2O[C@@H]12 [NSC 326233]
Correlation [10]: −0.4430
